Results: US20040071768A1, “Compositions and methods for treating cancer” (Inex Pharmaceuticals Corporation, priority 1999, published 2004)
Like-named read-outs stand apart in the source and are kept apart here.

Legend:
DLD-1 colon xenografts = tested on: DLD-1 colon xenografts
Description: Female NCr nude mice were injected intravenously (q7dx3) via the lateral tail vein on days indicated by an asterisk (*). […] Irinotecan (⋄) was prepared in saline and injected iv (q4dx3) at a dose of 90 mg/kg/dose. Drug-to-lipid ratio was 0.3/1 (w/w). Data points represent median tumor volume (n=6).
(§1) The anti-tumor activity of multiple (q7d3) dose schedules of liposomal vinorelbine was evaluated in several human xenograft tumor models. The goal of this series of studies was to identify the benefits of encapsulation by evaluating a series of doses and determining the therapeutic index in several xenograft models. Models were selected based on the following criteria: (1) activity in the single dose studies, (2) a comprehensive literature review of vinca alkaloid efficacy, (3) a desire to include at least 2-3 models that represent the clinical use of vinorelbine, and (4) a desire to include models with a range of sensitivity to vinorelbine so that improvements resulting from the use of the liposome formulation might be identified. Based on these criteria, MX-1 and MDA-MB-435 breast models, the NCl-H460 NSCLC model and the HT-29 and DLD-1 colon models were chosen.
(§2) Therapeutic index (TI) is a parameter that quantifies the “safety factor” of a particular therapy. TI is a ratio of a toxicity parameter and a biological activity parameter. Therefore, a higher ratio represents a greater potential margin of safety. For these studies, TI is defined as follows: […]
(§3) The minimal effective dose (MED) was set according to NCl activity criteria as the dose resulting in an optimal % T/C of 40. This information was derived from Table 7.

HT29 colon xenografts [1] = assay: Single dose anti-tumor activity, HT29 colon xenograft; assay type: in vivo; conditions: HT-29
Description: Female NCr nude mice were injected intravenously via the lateral tail vein on day 12 post-tumor-implantation with saline (♦), NVB at 30.0 mg/kg (◯) and 25.5 mg/kg (□), or NVB-TCS at 15.0 mg/kg (●) and 11.0 mg/kg (▪) at a drug-to-lipid ratio of 0.3:1 (w/w). The arrow on the x-axis denotes the day of drug administration. Data points represent mean±SEM (n=7). […]
(§4) Tumor models investigated included RXF393 (renal), MX-1 (breast), LX-1 (small cell lung cancer), PC-3 (prostate), and HT29 (colon). These models were known to be sensitive to vinorelbine. Tumor fragments were implanted subcutaneously in the flank of NCr nu/nu mice. […] Animal weights and tumor size were determined twice weekly.

RXF393 renal xenografts = assay: Single dose anti-tumor activity, RXF393 renal xenograft; assay type: in vivo; conditions: RXF-393
Description: Male NCr nude mice were injected intravenously via the lateral tail vein on day 7 post-tumor-implantation with saline (♦), NVB at 45.0 mg/kg (◯) and 34.0 mg/kg (□), or NVB-TCS at 15.0 mg/kg (●) and 11.0 mg/kg (▪) at a drug-to-lipid ratio of 0.3:1 (w/w). The arrow on the x-axis denotes the day of drug administration. Data points represent mean±SEM (n=10). […]
as §4

HT29 colon xenografts [2] = assay: Multiple dose (q7dx3) anti-tumor activity, HT29 colon xenograft; conditions: HT-29; for TF (tumor free animals at the end of study): n=6
Description: (§5) Female NCr nude mice were injected intravenously (q7dx3) via the lateral tail vein on days indicated by an asterisk (*). […] Drug-to-lipid ratio was 0.3/1 (w/w). Data points represent median tumor volume (n=6).
as §1, §2, §3

[3] = animal studies and clinical trials; cited from earlier work
[4] = Vinorelbine tolerability, multiple dosing (q7d x 3), nude mice; assay type: in vivo, NCr nu/nu mice; conditions: Nudes
Description: Single and multiple (q7dx3) dose MTD studies were performed in tumor-bearing and non-tumor bearing NCr nu/nu mice, as well as healthy, outbred ICR mice.

MX-1 breast xenografts = tested on: MX-1 breast xenografts
Description: as §5, §1, §2, §3

With `CCC1=C[C@@H]2CN(C1)Cc1c([nH]c3ccccc13)[C@@](C(=O)OC)(c1cc3c(cc1OC)N(C)[C@H]1[C@@](O)(C(=O)OC)[C@H](OC(C)=O)[C@]4(CC)C=CCN5CC[C@]31[C@@H]54)C2` [VRL, 5′-noranhydrovinblastine] the “% T/C (optimal % T/C following final treatment)” value (DLD-1 colon xenografts; 5 mg/kg i.v. q7dx3) was 88%, the “DRD (drug related deaths, n = 6)” value (DLD-1 colon xenografts; 5 mg/kg i.v. q7dx3) was 0 and the “NCI Score” value (DLD-1 colon xenografts; 5 mg/kg i.v. q7dx3) was 0. The “T-C (tumor growth delay to 1000 mm^3)” value (DLD-1 colon xenografts; 5 mg/kg i.v. q7dx3) was 0.0, the “TF (tumor free animals at the end of study)” value (DLD-1 colon xenografts; 5 mg/kg i.v. q7dx3, n=6) was 0 and the “% T/C (optimal % T/C following final treatment)” value (DLD-1 colon xenografts; 10 mg/kg i.v. q7dx3) was 58%. The “DRD (drug related deaths, n = 6)” value (DLD-1 colon xenografts; 10 mg/kg i.v. q7dx3) was 0, the “NCI Score” value (DLD-1 colon xenografts; 10 mg/kg i.v. q7dx3) was 0 and the “T-C (tumor growth delay to 1000 mm^3)” value (DLD-1 colon xenografts; 10 mg/kg i.v. q7dx3) was 4.7. For the same compound, the “TF (tumor free animals at the end of study)” value (DLD-1 colon xenografts; 10 mg/kg i.v. q7dx3, n=6) was 0, the “% T/C (optimal % T/C following final treatment)” value (DLD-1 colon xenografts; 20 mg/kg i.v. q7dx3) was −36% and the “DRD (drug related deaths, n = 6)” value (DLD-1 colon xenografts; 20 mg/kg i.v. q7dx3) was 0. The “NCI Score” value (DLD-1 colon xenografts; 20 mg/kg i.v. q7dx3) was 2, the “T-C (tumor growth delay to 1000 mm^3)” value (DLD-1 colon xenografts; 20 mg/kg i.v. q7dx3) was 19.7 and the “TF (tumor free animals at the end of study)” value (DLD-1 colon xenografts; 20 mg/kg i.v. q7dx3, n=6) was 0. For the same compound, the “% T/C (optimal % T/C following final treatment)” value (DLD-1 colon xenografts; 30 mg/kg i.v. q7dx3) was −100%, the “DRD (drug related deaths, n = 6)” value (DLD-1 colon xenografts; 30 mg/kg i.v. q7dx3) was 2 and the “NCI Score” value (DLD-1 colon xenografts; 30 mg/kg i.v. q7dx3) was 3. The “T-C (tumor growth delay to 1000 mm^3)” value (DLD-1 colon xenografts; 30 mg/kg i.v. q7dx3) was 26.4, the “TF (tumor free animals at the end of study)” value (DLD-1 colon xenografts; 30 mg/kg i.v. q7dx3, n=6) was 0 and the “% T/C (optimal % T/C following final treatment)” value (HT29 colon xenografts [1]; single i.v. dose 25.5 mg/kg) was 35%. The “DRD (drug related deaths)” value (HT29 colon xenografts [1]; single i.v. dose 25.5 mg/kg) was 0/7, the “MWL (maximum mean weight loss per treatment group)” value (HT29 colon xenografts [1]; single i.v. dose 25.5 mg/kg) was −9.8 and the “NCI Score” value (HT29 colon xenografts [1]; single i.v. dose 25.5 mg/kg) was 1. For the same compound, the “T-C (tumor growth delay to 1000 mm^3)” value (HT29 colon xenografts [1]; single i.v. dose 25.5 mg/kg) was 12, the “TF (tumor free animals at the end of study)” value (HT29 colon xenografts [1]; single i.v. dose 25.5 mg/kg) was 1/7 and the “% T/C (optimal % T/C following final treatment)” value (HT29 colon xenografts [1]; single i.v. dose 30 mg/kg) was 31%. The “DRD (drug related deaths)” value (HT29 colon xenografts [1]; single i.v. dose 30 mg/kg) was 0/7, the “MWL (maximum mean weight loss per treatment group)” value (HT29 colon xenografts [1]; single i.v. dose 30 mg/kg) was −9.3 and the “NCI Score” value (HT29 colon xenografts [1]; single i.v. dose 30 mg/kg) was 1. For the same compound, the “T-C (tumor growth delay to 1000 mm^3)” value (HT29 colon xenografts [1]; single i.v. dose 30 mg/kg) was 9, the “TF (tumor free animals at the end of study)” value (HT29 colon xenografts [1]; single i.v. dose 30 mg/kg) was 1/7 and the “% T/C (optimal % T/C following final treatment)” value (RXF393 renal xenografts; single i.v. dose 34 mg/kg) was −6%. For the same compound, the “DRD (drug related deaths)” value (RXF393 renal xenografts; single i.v. dose 34 mg/kg) was 2/10, the “MWL (maximum mean weight loss per treatment group)” value (RXF393 renal xenografts; single i.v. dose 34 mg/kg) was −23.1 and the “NCI Score” value (RXF393 renal xenografts; single i.v. dose 34 mg/kg) was 2. For the same compound, the “T-C (tumor growth delay to 1000 mm^3)” value (RXF393 renal xenografts; single i.v. dose 34 mg/kg) was 22, the “TF (tumor free animals at the end of study)” value (RXF393 renal xenografts; single i.v. dose 34 mg/kg) was 2/8 and the “% T/C (optimal % T/C following final treatment)” value (RXF393 renal xenografts; single i.v. dose 45 mg/kg) was “Toxic”. For the same compound, the “DRD (drug related deaths)” value (RXF393 renal xenografts; single i.v. dose 45 mg/kg) was 9/10, the “MWL (maximum mean weight loss per treatment group)” value (RXF393 renal xenografts; single i.v. dose 45 mg/kg) was −24.6 and the “TF (tumor free animals at the end of study)” value (RXF393 renal xenografts; single i.v. dose 45 mg/kg) was 0/1. For the same compound, the “% T/C (optimal % T/C following final treatment)” value (HT29 colon xenografts [2]; 5 mg/kg i.v. q7dx3) was 67%, the “DRD (drug related deaths, n = 6)” value (HT29 colon xenografts [2]; 5 mg/kg i.v. q7dx3) was 0 and the “NCI Score” value (HT29 colon xenografts [2]; 5 mg/kg i.v. q7dx3) was 0. The “T-C (tumor growth delay to 1000 mm^3)” value (HT29 colon xenografts [2]; 5 mg/kg i.v. q7dx3) was 1.32, the “TF (tumor free animals at the end of study)” value (HT29 colon xenografts [2]; 5 mg/kg i.v. q7dx3) was 0 and the “% T/C (optimal % T/C following final treatment)” value (HT29 colon xenografts [2]; 10 mg/kg i.v. q7dx3) was 5%. For the same compound, the “DRD (drug related deaths, n = 6)” value (HT29 colon xenografts [2]; 10 mg/kg i.v. q7dx3) was 0, the “NCI Score” value (HT29 colon xenografts [2]; 10 mg/kg i.v. q7dx3) was 1 and the “T-C (tumor growth delay to 1000 mm^3)” value (HT29 colon xenografts [2]; 10 mg/kg i.v. q7dx3) was 11.9. For the same compound, the “TF (tumor free animals at the end of study)” value (HT29 colon xenografts [2]; 10 mg/kg i.v. q7dx3) was 0, the “% T/C (optimal % T/C following final treatment)” value (HT29 colon xenografts [2]; 20 mg/kg i.v. q7dx3) was −65% and the “DRD (drug related deaths, n = 6)” value (HT29 colon xenografts [2]; 20 mg/kg i.v. q7dx3) was 0. For the same compound, the “NCI Score” value (HT29 colon xenografts [2]; 20 mg/kg i.v. q7dx3) was 3, the “T-C (tumor growth delay to 1000 mm^3)” value (HT29 colon xenografts [2]; 20 mg/kg i.v. q7dx3) was 29.3 and the “TF (tumor free animals at the end of study)” value (HT29 colon xenografts [2]; 20 mg/kg i.v. q7dx3) was 1. The “drug excreted in feces” value [3] was 40-50%, the “drug excreted in urine” value [3] was roughly 20% and the DRD ([4]; 5 mg/kg q7d x 3) was 0/30. For the same compound, the DRD ([4]; 10 mg/kg q7d x 3) was 0/37, the DRD ([4]; 20 mg/kg q7d x 3) was 2/37 and the DRD ([4]; 25 mg/kg q7d x 3) was 0/7. The DRD ([4]; 30 mg/kg q7d x 3) was 6/18, the “% T/C (optimal % T/C following final treatment)” value (MX-1 breast xenografts; 5 mg/kg i.v. q7dx3) was 100% and the “DRD (drug related deaths, n = 6)” value (MX-1 breast xenografts; 5 mg/kg i.v. q7dx3) was 0. The “NCI Score” value (MX-1 breast xenografts; 5 mg/kg i.v. q7dx3) was 0, the “T-C (tumor growth delay to 1000 mm^3)” value (MX-1 breast xenografts; 5 mg/kg i.v. q7dx3) was 0 and the “TF (tumor free animals at the end of study)” value (MX-1 breast xenografts; 5 mg/kg i.v. q7dx3, n=6) was 0. For the same compound, the “% T/C (optimal % T/C following final treatment)” value (MX-1 breast xenografts; 10 mg/kg i.v. q7dx3) was 38%, the “DRD (drug related deaths, n = 6)” value (MX-1 breast xenografts; 10 mg/kg i.v. q7dx3) was 0 and the “NCI Score” value (MX-1 breast xenografts; 10 mg/kg i.v. q7dx3) was 1. The “T-C (tumor growth delay to 1000 mm^3)” value (MX-1 breast xenografts; 10 mg/kg i.v. q7dx3) was 7.3, the “TF (tumor free animals at the end of study)” value (MX-1 breast xenografts; 10 mg/kg i.v. q7dx3, n=6) was 0 and the “% T/C (optimal % T/C following final treatment)” value (MX-1 breast xenografts; 20 mg/kg i.v. q7dx3) was −28%. The “DRD (drug related deaths, n = 6)” value (MX-1 breast xenografts; 20 mg/kg i.v. q7dx3) was 0, the “NCI Score” value (MX-1 breast xenografts; 20 mg/kg i.v. q7dx3) was 3 and the “T-C (tumor growth delay to 1000 mm^3)” value (MX-1 breast xenografts; 20 mg/kg i.v. q7dx3) was 28.5. The “TF (tumor free animals at the end of study)” value (MX-1 breast xenografts; 20 mg/kg i.v. q7dx3, n=6) was 0.
